Results as given in PubChem BioAssay (NCI).
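The compound was tested at five concentrations on cells cultured in 96-well plates, with a 48-hour exposure period. GI50: concentration for 50% inhibition of growth. At the TGI there is no net growth.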

Legend:
Assay in all cases: DTP human tumour cell line panel, 48 h
COLO 205 colon = tested on: COLO 205 colon
NCI-H226 lung = tested on: NCI-H226 lung
KM12 colon = tested on: KM12 colon
OVCAR-4 ovarian = tested on: OVCAR-4 ovarian
SW-620 colon = tested on: SW-620 colon
SNB-75 CNS = tested on: SNB-75 CNS
ACHN renal = tested on: ACHN renal
SR leukemia = tested on: SR leukemia
HOP-62 NSCLC = tested on: HOP-62 NSCLC
A498 renal = tested on: A498 renal
SF-268 CNS = tested on: SF-268 CNS
NCI-H23 lung = tested on: NCI-H23 lung
UACC-257 melanoma = tested on: UACC-257 melanoma
HOP-92 NSCLC = tested on: HOP-92 NSCLC
OVCAR-3 ovarian = tested on: OVCAR-3 ovarian
SF-539 CNS = tested on: SF-539 CNS
CAKI-1 renal = tested on: CAKI-1 renal
MDA-MB-435 = tested on: MDA-MB-435
CCRF-CEM leukemia = tested on: CCRF-CEM leukemia
BT-549 breast = tested on: BT-549 breast
NCI-H522 lung = tested on: NCI-H522 lung
SN12C renal = tested on: SN12C renal
U251 CNS = tested on: U251 CNS
HT29 colon = tested on: HT29 colon
HCT-116 colon = tested on: HCT-116 colon
MDA-MB-468 breast = tested on: MDA-MB-468 breast
IGROV1 ovarian = tested on: IGROV1 ovarian
MDA-MB-231 breast = tested on: MDA-MB-231 breast
LOX IMVI melanoma = tested on: LOX IMVI melanoma
UO-31 renal = tested on: UO-31 renal
SNB-19 CNS = tested on: SNB-19 CNS
T-47D breast = tested on: T-47D breast
EKVX NSCLC = tested on: EKVX NSCLC
SK-OV-3 ovarian = tested on: SK-OV-3 ovarian
OVCAR-5 ovarian = tested on: OVCAR-5 ovarian
RPMI-8226 leukemia = tested on: RPMI-8226 leukemia
786-0 renal = tested on: 786-0 renal
SF-295 CNS = tested on: SF-295 CNS
DU-145 prostate = tested on: DU-145 prostate
HL-60(TB) leukemia = tested on: HL-60(TB) leukemia
TK-10 renal = tested on: TK-10 renal
HCT-15 colon = tested on: HCT-15 colon
OVCAR-8 ovarian = tested on: OVCAR-8 ovarian
MOLT-4 leukemia = tested on: MOLT-4 leukemia
NCI/ADR-RES ovarian = tested on: NCI/ADR-RES ovarian
SK-MEL-28 melanoma = tested on: SK-MEL-28 melanoma
HCC-2998 colon = tested on: HCC-2998 colon
NCI-H460 lung = tested on: NCI-H460 lung
K-562 leukemia = tested on: K-562 leukemia
PC-3 prostate = tested on: PC-3 prostate
UACC-62 melanoma = tested on: UACC-62 melanoma
MCF7 breast = tested on: MCF7 breast
SK-MEL-2 melanoma = tested on: SK-MEL-2 melanoma
MALME-3M melanoma = tested on: MALME-3M melanoma
HS 578T breast = tested on: HS 578T breast
RXF 393 renal = tested on: RXF 393 renal
SK-MEL-5 melanoma = tested on: SK-MEL-5 melanoma
A549 NSCLC = tested on: A549 NSCLC
M14 melanoma = tested on: M14 melanoma

C#C[C@]1(O)CC[C@H]2[C@@H]3CC=C4c5sc(Nc6ccc(N(C)C)cc6)nc5CC[C@]4(C)[C@H]3CC[C@@]21C
GI50 (COLO 205 colon): 2620 nM | TGI (COLO 205 colon): 6.82 µM | GI50 (NCI-H226 lung): 2410 nM | TGI (NCI-H226 lung): 10.9 µM | GI50 (KM12 colon): 2150 nM | TGI (KM12 colon): 7.11 µM | GI50 (OVCAR-4 ovarian): 2540 nM | GI50 (SW-620 colon): 1100 nM | TGI (SW-620 colon): 3.47 µM | GI50 (SNB-75 CNS): 1290 nM | TGI (SNB-75 CNS): 6.32 µM | GI50 (ACHN renal): 2240 nM | TGI (ACHN renal): 10.8 µM | GI50 (SR leukemia): 567 nM | TGI (SR leukemia): 20.1 µM | GI50 (HOP-62 NSCLC): 1890 nM | TGI (HOP-62 NSCLC): 7.38 µM | GI50 (A498 renal): 1880 nM | TGI (A498 renal): 4.18 µM | GI50 (SF-268 CNS): 1870 nM | TGI (SF-268 CNS): 10.6 µM | GI50 (NCI-H23 lung): 1330 nM | TGI (NCI-H23 lung): 5.14 µM | GI50 (UACC-257 melanoma): 2010 nM | TGI (UACC-257 melanoma): 6.69 µM | GI50 (HOP-92 NSCLC): 2650 nM | TGI (HOP-92 NSCLC): 17.8 µM | GI50 (OVCAR-3 ovarian): 2300 nM | TGI (OVCAR-3 ovarian): 7.19 µM | GI50 (SF-539 CNS): 284 nM | TGI (SF-539 CNS): 1250 nM | GI50 (CAKI-1 renal): 1740 nM | TGI (CAKI-1 renal): > 23.6 µM | GI50 (MDA-MB-435): 1660 nM | TGI (MDA-MB-435): 7.37 µM | GI50 (CCRF-CEM leukemia): 812 nM | TGI (CCRF-CEM leukemia): > 86.6 µM | GI50 (BT-549 breast): 642 nM | TGI (BT-549 breast): 3.07 µM | GI50 (NCI-H522 lung): 1490 nM | TGI (NCI-H522 lung): 3.25 µM | GI50 (SN12C renal): 2630 nM | TGI (SN12C renal): 7.84 µM | GI50 (U251 CNS): 735 nM | TGI (U251 CNS): 4.44 µM | GI50 (HT29 colon): 1660 nM | TGI (HT29 colon): 4.3 µM | GI50 (HCT-116 colon): 1010 nM | TGI (HCT-116 colon): 3.93 µM | GI50 (MDA-MB-468 breast): 1510 nM | TGI (MDA-MB-468 breast): 4.36 µM | GI50 (IGROV1 ovarian): 3.22 µM | TGI (IGROV1 ovarian): 10.1 µM | GI50 (MDA-MB-231 breast): 1270 nM | TGI (MDA-MB-231 breast): 3.33 µM | GI50 (LOX IMVI melanoma): 923 nM | TGI (LOX IMVI melanoma): 2410 nM | GI50 (UO-31 renal): 1500 nM | TGI (UO-31 renal): 5.21 µM | GI50 (SNB-19 CNS): 1490 nM | TGI (SNB-19 CNS): 6.01 µM | GI50 (T-47D breast): 2640 nM | TGI (T-47D breast): 15.1 µM | GI50 (EKVX NSCLC): 1590 nM | TGI (EKVX NSCLC): 6.49 µM | GI50 (SK-OV-3 ovarian): 1350 nM | TGI (SK-OV-3 ovarian): 3.69 µM | GI50 (OVCAR-5 ovarian): 2410 nM | TGI (OVCAR-5 ovarian): 8.22 µM | GI50 (RPMI-8226 leukemia): 248 nM | TGI (RPMI-8226 leukemia): 2200 nM | GI50 (786-0 renal): 647 nM | TGI (786-0 renal): 5.34 µM | GI50 (SF-295 CNS): 225 nM | TGI (SF-295 CNS): 557 nM | GI50 (DU-145 prostate): 2550 nM | TGI (DU-145 prostate): 10.8 µM | GI50 (HL-60(TB) leukemia): 2400 nM | TGI (HL-60(TB) leukemia): 12.3 µM | GI50 (TK-10 renal): 7.56 µM | TGI (TK-10 renal): 33.3 µM | GI50 (HCT-15 colon): 791 nM | TGI (HCT-15 colon): 2670 nM | GI50 (OVCAR-8 ovarian): 2990 nM | TGI (OVCAR-8 ovarian): 11 µM | GI50 (MOLT-4 leukemia): 374 nM | TGI (MOLT-4 leukemia): 5.53 µM | GI50 (NCI/ADR-RES ovarian): 2540 nM | TGI (NCI/ADR-RES ovarian): 10.7 µM | GI50 (SK-MEL-28 melanoma): 651 nM | TGI (SK-MEL-28 melanoma): 1880 nM | GI50 (HCC-2998 colon): 3.23 µM | TGI (HCC-2998 colon): 7.82 µM | GI50 (NCI-H460 lung): 1440 nM | TGI (NCI-H460 lung): 5.61 µM | GI50 (K-562 leukemia): 1860 nM | TGI (K-562 leukemia): 15.8 µM | GI50 (PC-3 prostate): 999 nM | TGI (PC-3 prostate): 9.29 µM | GI50 (UACC-62 melanoma): 1270 nM | TGI (UACC-62 melanoma): 3.01 µM | GI50 (MCF7 breast): 948 nM | TGI (MCF7 breast): 4.21 µM | GI50 (SK-MEL-2 melanoma): 1460 nM | TGI (SK-MEL-2 melanoma): 4.32 µM | GI50 (MALME-3M melanoma): 858 nM | TGI (MALME-3M melanoma): 2900 nM | GI50 (HS 578T breast): 417 nM | TGI (HS 578T breast): 3.98 µM | GI50 (RXF 393 renal): 190 nM | TGI (RXF 393 renal): 715 nM | GI50 (SK-MEL-5 melanoma): 1490 nM | TGI (SK-MEL-5 melanoma): 2920 nM | GI50 (A549 NSCLC): 2500 nM | TGI (A549 NSCLC): 12.5 µM | GI50 (M14 melanoma): 1040 nM | TGI (M14 melanoma): 4.51 µM
